Measured values published in patent publication US20070088024A1, “Active substance combination comprising a carbinol combined to at least an NSAID” (LABORATORIOS DEL DR. ESTEVE S.A., priority 2004, published 2007).

How the values were obtained:
male Swiss albino mice [1] = assay: Writhing test in mice (phenylbenzoquinone-induced writhing reactions); type: in vivo; conditions: for % Activity (inhibition of the writhing reactions): 60 minutes prior to phenylbenzoquinone; for ED50: p.o., in mg/kg
Description: (§1) The Writhing test for the determination of the analgesic activity of the inventive active substance combination is carried out according to the method described in the publication of E. Siegmund et al., Proc. Soc. Exp. Biol. Med. 1957, 95, 729-731 using male Swiss albino mice (20-25 g body weight, obtained from Harlan, S. Feliu de Codinas, Spain). The respective part of the description is hereby incorporated by reference and forms part of the respective disclosure.
The Writhing reactions are induced by intraperitoneal injection of phenylbenzoquinone (25 ml/kg in a 0.02% (volume/volume) ethanolic solution in a 5% (volume/volume) solution in destillated water with Evan's blue in an amount of 0.1% weight/volume) and the writhing reactions are counted during a 15 minute period following the injection. The substances to be tested are orally administered 60 minutes prior to the injection of the phenylbenzoquinone solution. The percentage of the inhibition of the writhing reactions is calculated on the basis of the control group as basis for 0% inhibition.

male Swiss albino mice [2] = assay: Formaline test in mice; type: in vivo; conditions: 40 mg/kg i.p.
Description: as §1, with “Formaline” for “Writhing”, “T. Ohkubo” for “E. Siegmund”, “J. Pharmacol.” for “Proc. Soc.”, “Ther. 1990, 252, 1261-1268” for “Biol. Med. 1957, 95, 729-731”
The substances to be tested are intraperitoneally administered to the mice in 5% by weight solution of arabic gum in destined water as vehicle. 15 minutes later 20 μl of a 5% by weight solution of formaline in saline solution is injected into the back of the right paw of the animals. The total time in seconds of licking and/or biting the injected paw is registered in the acute phase, i.e. 0-5 minutes (phase I), and in the chronic phase, i.e. 15-30 (phase II), minutes after injection of the formaline.
The percentage of inhibition is calculated based on the medium values of the acute and chronic phases of the control group as 0% inhibition of the primary and secondary response.

SMILES	% Activity (inhibition of the writhing reactions) (male Swiss albino mice [1]; 40 mg/kg p.o.) [%]	% Activity (inhibition of the writhing reactions) (male Swiss albino mice [1]; 80 mg/kg p.o.) [%]	% Activity (inhibition of the writhing reactions) (male Swiss albino mice [1]; 160 mg/kg p.o.) [%]	ED50 (male Swiss albino mice [1])	% Activity Phase I (male Swiss albino mice [2]; acute phase 0-5 minutes) [%]	% Activity Phase II (male Swiss albino mice [2]; chronic phase 15-30 minutes) [%]
CN(C)CCO[C@H](c1ccccc1)c1ccnn1C.O=C(O)Cc1ccccc1Nc1c(Cl)cccc1Cl [R-(+)-Cizolirtine diclofenacate, R-(+)-5-[α-[2-(Dimethylamino)ethoxy]benzyl]-1-methyl-1H-pyrazole diclofenacate]	14.7	57.3	72.1	84		
CC(C)Cc1ccc([C@H](C)C(=O)O)cc1.CN(C)CCO[C@H](c1ccccc1)c1ccnn1C [R-(+)-Cizolirtine ibuprofenate, R-(+)-5-[α-[2-(Dimethylamino)ethoxy]benzyl]-1-methyl-1H-pyrazole S-(+)-ibuprofenate]	15.9	45	80.9	84.8		
CN(C)CCO[C@H](c1ccccc1)c1ccnn1C.COc1ccc2cc([C@H](C)C(=O)O)ccc2c1 [R-(+)-Cizolirtine naproxenate, R-(+)-5-[α-[2-(Dimethylamino)ethoxy]benzyl]-1-methyl-1H-pyrazole naproxenate]	32.0	52.0	77.3	71.29	49	36
CN(C)CCO[C@@H](c1ccccc1)c1ccnn1C.COc1ccc2cc([C@H](C)C(=O)O)ccc2c1 [S-(−)-Cizolirtine naproxenate, S-(−)-5-[α-[2-(Dimethylamino)ethoxy]benzyl]-1-methyl-1H-pyrazole naproxenate]	26.7	52.4	68.5	82.15		
CN(C)CCO[C@@H](c1ccccc1)c1ccnn1C [S-(−)-Cizolirtine, S-(−)-5-[α-[2-(Dimethylamino)ethoxy]benzyl]-1-methyl-1H-pyrazole]	29.0	49.7	59.7	95.26		
